The source made the active and inactive calls. The calls are words filed in the database; no cut-off is given here.
How the values were obtained:
Staphylococcus aureus [1] = assay: Antibacterial activity against methicillin-resistant Staphylococcus aureus M11 incubated for 16 to 20 hrs by broth microdilution method; format: functional; conditions: time 16-20 hrs
Staphylococcus aureus [2] = assay: Antibacterial activity against methicillin-resistant Staphylococcus aureus M11 infected in BALB/c mouse model of Sepsis assessed as reduction in bacterial count in skin tissues at 4 mg/kg measured after 24 hrs relative to control; format: functional; set-up: scale not given: the % may be the effect or the level left
Staphylococcus aureus [3] = assay: Antibacterial activity against methicillin-resistant Staphylococcus aureus M16 incubated for 16 to 20 hrs by broth microdilution method; format: functional; conditions: time 16-20 hrs
[4] = Toxicity in BALB/c mouse assessed as glossy fur at 5 to 40 mg/kg, ip measured for 7 days; format: organism-based; conditions: in vivo, 168 h, dose 5-40 mg/kg, time 7 day
Staphylococcus aureus [5] = assay: Disruption of cell membrane in methicillin-resistant Staphylococcus aureus M11 assessed as fold increase in DNA leakage at 4 ug/ml incubated for 4 hrs by micro-spectrophotometric analysis relative to control; format: functional; conditions: dose 4 µg/ml
Staphylococcus aureus [6] = assay: Antibacterial activity against methicillin-resistant Staphylococcus aureus M23 incubated for 16 to 20 hrs by broth microdilution method; format: functional; conditions: time 16-20 hrs
Staphylococcus aureus [7] = assay: Induction of ROS production in methicillin-resistant Staphylococcus aureus M11 incubated for 1 hr by DCFH-DA probe based analysis; format: functional, organism-based; conditions: dose <= 32.0 µg/ml
[8] = Toxicity in BALB/c mouse assessed as normal appetite at 5 to 40 mg/kg, ip measured for 7 days; format: organism-based; conditions: in vivo, 168 h, dose 5-40 mg/kg, time 7 day
Staphylococcus aureus [9] = assay: Antibacterial activity against methicillin-resistant Staphylococcus aureus M11 up to 128 ug/ml in presence of 32 ug/ml cardiolipin incubated for 16 to 18 hrs; format: functional; conditions: dose <= 128 µg/ml, time 16-18 hrs
[10] = Toxicity in BALB/c mouse model of Sepsis infected with methicillin-resistant Staphylococcus aureus M11 assessed as lesions in heart at 4 to 8 mg/kg measured after 24 hrs by H and E staining based analysis; format: organism-based; conditions: in vivo, dose 4-8 mg/kg
Staphylococcus aureus [11] = assay: Antibacterial activity against methicillin-resistant Staphylococcus aureus M12 incubated for 16 to 20 hrs by broth microdilution method; format: functional; conditions: time 16-20 hrs
[12] = Hemolytic activity against sheep erythrocytes; format: toxicity, cell-based, Ovis aries, Erythrocyte
Staphylococcus aureus [13] = assay: Disruption of cell membrane in methicillin-resistant Staphylococcus aureus M11 assessed as fold increase in protein leakage at 4 ug/ml incubated for 4 hrs by micro-spectrophotometric analysis relative to control; format: functional; conditions: dose 4 µg/ml
Staphylococcus aureus [14] = assay: Antibacterial activity against methicillin-resistant Staphylococcus aureus M11 infected in BALB/c mouse model of Sepsis assessed as reduction in bacterial load in skin tissues at 4 mg/kg measured after 24 hrs; format: functional
Staphylococcus aureus [15] = assay: Disruption of cell membrane in methicillin-resistant Staphylococcus aureus M11 assessed as shrinkage in cell membrane at 4 ug/ml incubated for 4 hrs by SEM analysis; format: functional, organism-based; conditions: dose 4.0 µg/ml
Staphylococcus aureus [16] = assay: Antibacterial activity against methicillin-resistant Staphylococcus aureus M11 up to 128 ug/ml in presence of 128 ug/ml peptidoglycan incubated for 16 to 18 hrs; format: functional; conditions: dose <= 128 µg/ml, time 16-18 hrs
Staphylococcus aureus [17] = assay: Antibacterial activity against methicillin-resistant Staphylococcus aureus M11 assessed as fold increase in MIC up to 128 ug/ml in presence of 128 ug/ml peptidoglycan incubated for 16 to 18 hrs relative to control; format: functional; conditions: dose <= 128 µg/ml; time 16-18 hrs
Staphylococcus aureus [18] = assay: Antibacterial activity against methicillin-resistant Staphylococcus aureus M11 up to 128 ug/ml in presence of peptidoglycan incubated for 16 to 18 hrs; format: functional, organism-based; conditions: dose <= 128.0 µg/ml, time 16-18 hrs
[19] = Cytotoxicity against human L02 cells assessed as cell survival rate at 32 times MIC incubated for 24 hrs by CCK8 assay; format: toxicity, cell-based; conditions: read-out: Survival
Staphylococcus aureus [20] = assay: Antibacterial activity against methicillin-resistant Staphylococcus aureus M17 incubated for 16 to 20 hrs by broth microdilution method; format: functional; conditions: time 16-20 hrs
Staphylococcus aureus [21] = assay: Disruption of cell membrane in methicillin-resistant Staphylococcus aureus M11 assessed as wrinkling in cell membrane at 4 ug/ml incubated for 4 hrs by SEM analysis; format: functional, organism-based; conditions: dose 4.0 µg/ml
Staphylococcus aureus [22] = assay: Induction of bacterial eradication in methicillin-resistant Staphylococcus aureus M11 at 4 times MIC incubated for 8 hrs by time-kill assay; format: functional, organism-based
Staphylococcus aureus [23] = assay: Induction of cell permeability in methicillin-resistant Staphylococcus aureus M11 assessed as fold increase in fluorescence intensity at 32 times MIC by SYTOX Green dye based analysis relative to control; format: functional
[24] = Toxicity in BALB/c mouse model of Sepsis infected with methicillin-resistant Staphylococcus aureus M11 assessed as pathological change in liver at 4 to 8 mg/kg measured after 24 hrs by H and E staining based analysis; format: organism-based; conditions: in vivo, dose 4-8 mg/kg
Staphylococcus aureus [25] = assay: Induction of bacterial eradication in methicillin-resistant Staphylococcus aureus M11 at 8 times MIC incubated for 4 hrs by time-kill assay; format: functional, organism-based
[26] = Toxicity in BALB/c mouse model of Sepsis infected with methicillin-resistant Staphylococcus aureus M11 assessed as pathological change in spleen at 4 to 8 mg/kg measured after 24 hrs by H and E staining based analysis; format: organism-based; conditions: in vivo, dose 4-8 mg/kg
[27] = Toxicity in BALB/c mouse model of Sepsis infected with methicillin-resistant Staphylococcus aureus M11 assessed as pathological change in kidney at 4 to 8 mg/kg measured after 24 hrs by H and E staining based analysis; format: organism-based; conditions: in vivo, dose 4-8 mg/kg
Staphylococcus aureus [28] = assay: Antibacterial activity against methicillin-resistant Staphylococcus aureus M11 infected in BALB/c mouse model of Sepsis assessed as reduction in bacterial load in skin tissues at 8 mg/kg measured after 24 hrs; format: functional
Staphylococcus aureus [29] = assay: Antibacterial activity against methicillin-resistant Staphylococcus aureus M11 infected in BALB/c mouse model of Sepsis assessed as reduction in inflammatory cell infiltration in skin tissues at 4 to 8 mg/kg measured after 24 hrs by H and E staining based analysis; format: functional, organism-based; conditions: dose 4-8 mg/kg
Staphylococcus aureus [30] = assay: Antibacterial activity against methicillin-resistant Staphylococcus aureus M11 infected in BALB/c mouse model of Sepsis assessed as restoration of smoothness in outer skin at 8 mg/kg measured after 24 hrs; format: functional, organism-based
Staphylococcus aureus [31] = assay: Antibacterial activity against methicillin-resistant Staphylococcus aureus M20 incubated for 16 to 20 hrs by broth microdilution method; format: functional; conditions: time 16-20 hrs
Staphylococcus aureus [32] = assay: Antibacterial activity against methicillin-resistant Staphylococcus aureus M11 upto 128 ug/ml in presence of phosphatidylethanolamine incubated for 16 to 18 hrs; format: functional, organism-based; conditions: dose <= 128.0 µg/ml, time 16-18 hrs
Staphylococcus aureus [33] = assay: Depolarization of cell membrane in methicillin-resistant Staphylococcus aureus M11 assessed as increase in fluorescence intensity incubated for 30 mins by DiSC3(5) dye based analysis; format: functional, organism-based
[34] = Toxicity in KM mouse assessed as animal death at 40 mg/kg, sc; format: organism-based; conditions: in vivo
Staphylococcus aureus [35] = assay: Antibacterial activity against Staphylococcus aureus ATCC 29213 incubated for 16 to 20 hrs by broth microdilution method; format: functional; conditions: time 16-20 hrs
Staphylococcus aureus [36] = assay: Antibacterial activity against methicillin-resistant Staphylococcus aureus M11 infected in BALB/c mouse model of Sepsis assessed as reduction in bacterial count in skin tissues at 8 mg/kg measured after 24 hrs relative to control; format: functional; set-up: scale not given: the % may be the effect or the level left
Staphylococcus aureus [37] = assay: Antibacterial activity against methicillin-resistant Staphylococcus aureus M11 infected in BALB/c mouse model of Sepsis assessed as reduction in TNF-alpha level measured after 24 hrs; format: functional, organism-based; conditions: dose 4-8 mg/kg

SMILES | MIC (Staphylococcus aureus [1]) [µg/mL] | Activity (Staphylococcus aureus [2]) [%] | MIC (Staphylococcus aureus [3]) [µg/mL] | Activity [4] | fold change (FC) (Staphylococcus aureus [5]) | MIC (Staphylococcus aureus [6]) [µg/mL] | Activity (Staphylococcus aureus [7]) | Activity [8] | MIC (Staphylococcus aureus [9]) [µg/mL] | Activity [10] | MIC (Staphylococcus aureus [11]) [µg/mL] | HC50 [12] [µg/mL] | fold change (FC) (Staphylococcus aureus [13]) | Activity (Staphylococcus aureus [14]) [log10CFU/g] | Activity (Staphylococcus aureus [15]) | MIC (Staphylococcus aureus [16]) [µg/mL] | fold change (FC) (Staphylococcus aureus [17]) | Activity (Staphylococcus aureus [18]) | viability at 24 h, 32 times MIC [19] [%] | MIC (Staphylococcus aureus [20]) [µg/mL] | further results
CCCCCNC(=O)C[n+]1ccc(SCCCCCOc2ccc3ccc(=O)oc3c2CC=C(C)C)cc1.[Br-] | 0.5 | 98.702 | 0.5 | Non-toxic | ~2 | 0.5 | Dose-dependent-effect | Non-toxic | 1 | Non-toxic | 1 | > 160 | ~4 | 1.882 | Active | 16 | 32 | Active; Compound Showed Only Minor Or No Change In Mic | > 80 | 0.5 | Activity (Staphylococcus aureus [21]): Active; Activity (Staphylococcus aureus [22]): Active; fold change (FC) (Staphylococcus aureus [23]): ~10; Activity [24]: Non-toxic; Activity (Staphylococcus aureus [25]): Active; Activity [26]: Non-toxic; Activity [27]: Non-toxic; Activity (Staphylococcus aureus [28]): 3.828 log10CFU/g; Activity (Staphylococcus aureus [29]): Active; Activity (Staphylococcus aureus [30]): Active; MIC (Staphylococcus aureus [31]): 0.5 µg/mL; Activity (Staphylococcus aureus [32]): Active; Compound Showed Only Minor Or No Change In Mic; Activity (Staphylococcus aureus [33]): Dose-dependent-effect; Activity Was Observed Higher Than Melittin; Activity [34]: Non-toxic; MIC (Staphylococcus aureus [35]): 1 µg/mL; Activity (Staphylococcus aureus [36]): 99.985%; Activity (Staphylococcus aureus [37]): Dose-dependent-effect; Compound Has Slightly Greater Efficacy Than Vancomycin
CC(C)=CCc1c(OCCCCSc2cc[n+](CC(=O)N(CC(C)C)CC(C)C)cc2)ccc2ccc(=O)oc12.[Br-] | 0.5 | 98.886 | 0.5 | Non-toxic | ~2 | 0.5 | Dose-dependent-effect | Non-toxic | 1 | Non-toxic | 1 | > 160 | ~4 | 1.948 | Active | 16 | 32 | Active; Compound Showed Only Minor Or No Change In Mic | > 80 | 0.5 | Activity (Staphylococcus aureus [21]): Active; Activity (Staphylococcus aureus [22]): Active; fold change (FC) (Staphylococcus aureus [23]): ~10; Activity [24]: Non-toxic; Activity (Staphylococcus aureus [25]): Active; Activity [26]: Non-toxic; Activity [27]: Non-toxic; Activity (Staphylococcus aureus [28]): 4.252 log10CFU/g; Activity (Staphylococcus aureus [29]): Active; Activity (Staphylococcus aureus [30]): Active; MIC (Staphylococcus aureus [31]): 0.5 µg/mL; Activity (Staphylococcus aureus [32]): Active; Compound Showed Only Minor Or No Change In Mic; Activity (Staphylococcus aureus [33]): Dose-dependent-effect; Activity Was Observed Higher Than Melittin; Activity [34]: Non-toxic; MIC (Staphylococcus aureus [35]): 0.5 µg/mL; Activity (Staphylococcus aureus [36]): 99.994%; Activity (Staphylococcus aureus [37]): Dose-dependent-effect; Compound Has Slightly Greater Efficacy Than Vancomycin

From ChEMBL document CHEMBL6109153, “Development of Membrane-Targeting Osthole Derivatives Containing Pyridinium Quaternary Ammonium Moieties with Potent Anti-Methicillin-Resistant Staphylococcus aureus Properties” (J Med Chem, 2025)
